Tm data for 6 sequences are collected here from article PMC4751974, “Deriving Heterospecific Self-Assembling Protein–Protein Interactions Using a Computational Interactome Screen” (Journal of Molecular Biology, 2016).

As usually defined, the Tm is the temperature at the midpoint of the melting transition.

This assay deals with coiled-coil pairs within the eight-peptide interactome. Kind of assay: Thermal denaturation followed by CD at 222 nm (Tm of coiled-coil pairs). The assay is classed as binding. The conditions noted are these: Table 1 and text, CD 222 nm, 150 μM total peptide (75 μM per peptide for heterodimers), 10 mM potassium phosphate, 100 mM potassium fluoride, pH 7, -8 to 95 °C in 1 °C steps, two-state fit. On the procedure: CD was carried out using an Applied Photophysics Chirascan CD apparatus (Leatherhead, UK) using a 200-μl sample in a CD cell with a 1-mm path length. Samples contained 150 μM total peptide (Pt) concentration at equimolar concentration for heterodimeric solutions (i.e., 75 μM per peptide) and suspended in 10 mM potassium phosphate and 100 mM potassium fluoride at pH 7 1 h prior to analysis. The CD spectra of samples were scanned between 300 nm and 190 nm in 1-nm steps, averaging 0.5 s at each wavelength. Three scans at 20 °C were averaged to assess helical levels and coiled-coil structure.
Thermal denaturations were performed at 150 μM Pt in 10 mM potassium phosphate and 100 mM potassium fluoride, pH 7, using an Applied Photophysics Chirascan CD instrument (Leatherhead, UK). The temperature ramp was set to stepping mode using 1 °C increments and paused for 30 s at each temperature before measuring ellipticity at 222 nm. For all temperature denaturation experiments, data collection was started at − 8 °C, and at this temperature, the peptide solutions remained aqueous. Data collection continued to 95 °C. Data points for thermal denaturation profiles represent the averaged signal after 4 s of data collection. Melting profiles (see Fig. 3a) were ≥ 95% reversible with equilibrium denaturation curves fitted to a two-state model, derived via modification of the Gibbs–Helmholtz equation [6], [45], [46], to yield the melting temperature (Tm). […] Tm values were determined by least-squares fitting of the denaturation assuming a two-state folding model that is widely used for coiled coils and provided an excellent fit to our data.

Turning to “ASEIAALEAENAALEYKNAALKAKIAALKGAP [Peptide 8, N- and C-capped coiled-coil peptide; 8-8 is the homomeric sample]”, the melting temperature (Tm) (listed as 8-8) turned out to be 27 °C. In the case of “ASENAALEAKIAALKYEIAALEAKNAALKGAP [Peptide 6, N- and C-capped coiled-coil peptide; 6-6 is the homomeric sample]”, the Tm turned out to be 53 °C. Consider “ASENAALEAKNAALKYKIAALKAEIAALEGAP [Peptide 1, N- and C-capped coiled-coil peptide; 1-1 is the homomeric sample]”, for which the Tm stood at 32 °C. Regarding “ASKIAALKAKNAALKYENAALEAEIAALEGAP [Peptide 7, N- and C-capped coiled-coil peptide; 7-7 is the homomeric sample]”, the midpoint of thermal melting (Tm) (listed as 7-7) was 11 °C.

Regarding “ASKNAALKAEIAALEYKIAALKAENAALEGAP [Peptide 5, N- and C-capped coiled-coil peptide; 5-5 is the homomeric sample]”, the Tm came to 53 °C. Consider “ASKNAALKAENAALEYEIAALEAKIAALKGAP [Peptide 2, N- and C-capped coiled-coil peptide; 2-2 is the homomeric sample]”, for which the Tm turned out to be 20 °C.
